Reference: patent publication US20210181109A1 (FUJIFILM Corporation, priority 2018, published 2021)

Experiments:
[1] = NAL depletion percent, HPLC-fluorescence detection
Description: (§1) 1) To a 50 mL vessel, 12.6 mg (±0.1 mg) of NAL is weighed; to this, a 25 mL measuring pipet is used to add 20 mL of 100 mmol/L phosphate buffer (pH: 10.2); and the content is gently stirred using a test tube mixture to achieve dissolution (2 mmol/L NAL solution). 2) To a 500 mL vessel, 149.5 mL of this buffer is added using a 50 mL measuring pipet; to this, 0.5 mL of the above-described 2 mmol/L NAL solution is added; and the content is mixed by inversion to achieve 300-fold dilution (6.667 μmol/L).
(§2) The test substance undiluted solution is defined as an “undiluted solution”, and used. Incidentally, this “undiluted solution” may be appropriately diluted to, for example, 1/10, 1/100, or 1/1000, using an appropriate solvent, and the resultant solution may be used.
(§3) Subsequently, the solution having the maximum dissolution concentration is defined as an “undiluted solution”, and tested. Incidentally, this “undiluted solution” may be appropriately diluted to, for example, 1/10, 1/100, or 1/1000, using an appropriate solvent, and the resultant solution may be used.
(§4) The test substance is prepared at 1 mmol/L in any of solvents that are water, acetonitrile, acetone, and a 5 mass % dimethyl sulfoxide (DMSO)/acetonitrile solution and used as a test substance solution. As the solvent, a solvent in which the test substance dissolves at 1 mmol/L is used; when the test substance is soluble in a plurality of solvents, the solvent is selected in the following order of decreasing precedence: water, acetonitrile, acetone, and 5 mass % DMSO/acetonitrile.
(§5) Test substance solutions are prepared on a 96-well plate (U96 PP-0.5 ML NATURAL, Thermo Fisher Scientific Inc. (NUNC)) mainly using a 12-channel pipette, and a reagent is added in accordance with the following formula.
(§6) Nucleophilic reagent (NAC and NAL): 150 μL
(§7) Test substance solution: 50 μL
(§8) The plate is tightly sealed using a plate sealing (Resistant embossed seal, SHIMADZU GLC Ltd.), and stirred using a plate shaker (Titramax 100, Heidolph Instruments GmbH & CO. KG). The plate is subjected to spinning down using a centrifuge, and then to incubation at 25° C., for 24 hours, in a light-shielded state.
(§9) After the incubation for 24 hours, the plate sealing is removed; to each sample, 50 µL of the reaction stopping solution is added to stop the reaction.
(§10) The HPLC measurement conditions for the nucleophilic reagents are as follows.
(§11) From the average values (each, n=3) of peak areas of the post-reaction unreacted NAC or NAL and the blank-test (after performing the reaction step without addition of the test substances) NAC or NAL, the following formula is used to calculate the depletion percent of NAC or NAL.
(§12) NAL depletion percent (% depletion)=[1−(Average value of peak areas of post-reaction unreacted NAL/Average value of peak areas of blank-test (after performing the reaction step without addition of the test substances) NAL)]×100
(§13) The average value of peak areas of post-reaction unreacted NAL is the average value of areas obtained by measuring three times post-reaction unreacted NAL. The average value of peak areas of blank-test (after performing the reaction step without addition of the test substances) NAL is the average value of areas obtained by measuring three times blank-test (after performing the reaction step without addition of the test substances) NAL.
(§14) The reactions were each performed on a 96-well plate, and the number of samples of each case was set to n=3. In addition, as controls, reaction solutions including the solvent alone were prepared. The reaction solutions were prepared so as to have a NAC or NAL concentration of 5 μmon. To the reaction solutions after the lapse of 24 hours, a trifluoroacetic acid (TFA) aqueous solution was added such that the final concentration became 0.5% (v/v) TFA. Subsequently, HPLC was performed for measurements by two detection methods that were light absorption detection using a photodiode array (PDA) detector, and fluorescence detection using a fluorescence detector.

[2] = NAC depletion percent, HPLC-fluorescence detection
Description: as §1, with “11.6” for “12.6”, “NAC” for “NAL”, “8.0);” for “10.2);”, “mixer” for “mixture”, “mmol/L).” for “mmol/L NAL solution).”, “μmon).” for “μmol/L).”
as §2, §3, §4, §5, §6, §7, §8, §9, §10, §11
(§15) NAC depletion percent (% depletion)=[1−(Average value of peak areas of post-reaction unreacted NAC/Average value of peak areas of blank-test (after performing the reaction step without addition of the test substances) NAC)]×100
(§16) The average value of peak areas of the post-reaction unreacted NAC is the average value of areas obtained by measuring three times post-reaction unreacted NAC. The average value of peak areas of blank-test (after performing the reaction step without addition of the test substances) NAC is the average value of areas obtained by measuring three times blank-test (after performing the reaction step without addition of the test substances) NAC.
as §14

[3] = Average score of NAC and NAL depletion and prediction of skin allergenicity, fluorescence method; details: for Average score: test substance solution 1 mmol/L
Description: (§17) The average value (Average Score) of NAC and NAL depletion percents is calculated. In the resultant value, the second decimal place is rounded off.
(§18) Average value (Average Score) of NAC and NAL depletion percents=(NAC depletion percent+NAL depletion percent)/2
(§19) The depletion percent of at least one of NAC or NAL or the average score of the depletion percents of NAC and NAL is calculated, and whether or not the test substances are “allergenic substances” or “non-allergenic substances” is determined:
(§20) (1) in a case of performing evaluation based on the average value of the depletion percent of NAC and the depletion percent of NAL,
(§21) In the following Tables, S represents as being an allergenic substance and NS represents as being a non-allergenic substance.

[4] = NAL depletion percent, HPLC-UV detection (281 nm)
Description: as §1, §2, §3, §4, §5, §6, §7, §8, §9, §10, §11, §12, §13, §14

[5] = NAC depletion percent, HPLC-UV detection (281 nm)
Description: as §1, with “11.6” for “12.6”, “NAC” for “NAL”, “8.0);” for “10.2);”, “mixer” for “mixture”, “mmol/L).” for “mmol/L NAL solution).”, “μmon).” for “μmol/L).”
as §2, §3, §4, §5, §6, §7, §8, §9, §10, §11, §15, §16, §14

[6] = Average score of NAC and NAL depletion and prediction of skin allergenicity, UV method; details: for Average score: test substance solution 1 mmol/L
Description: as §17, §18, §19, §20, §21

[7] = Fluorescence method, non-allergenic substance
[8] = Fluorescence method, skin allergenicity prediction
[9] = Reference (UV method), non-allergenic substance
[10] = Reference (UV method), skin allergenicity prediction
[11] = single substance, test substance solution 1 mmol/L, fluorescence method
[12] = single substance, fluorescence method
[13] = single substance, test substance solution 1 mmol/L, Reference (UV method)
[14] = single substance, Reference (UV method)
[15] = single substance, fluorescence method, criterion average score […]
[16] = single substance, Reference (UV method), criterion average score […]

| Compound | NAL depletion (%) [1, 7] [%] | NAC depletion (%) [2, 7] [%] | Prediction result [3, 8] | NAL depletion (%) [4, 9] [%] | NAC depletion (%) [5, 9] [%] | Prediction result [6, 10] | also measured |
| --- | --- | --- | --- | --- | --- | --- | --- |
| CCCCBr [1-Bromobutane] | 0.0 | 0.0 | NS (NS represents as being a non-allergenic substance) | 2.4 | 0.1 | NS (NS represents as being a non-allergenic substance) |  |
| CC(=O)C(C)=O [2,3-Butanedione] |  |  |  |  |  |  | NAL depletion (%) [1, 11]: 17.7%; NAC depletion (%) [2, 11]: 45.2%; Average score [3, 12]: 31.4%; NAL depletion (%) [4, 13]: 25.5%; NAC depletion (%) [5, 13]: 41.2%; Average score [6, 14]: 33.4% |
| O=[N+]([O-])c1ccc(Cl)c([N+](=O)[O-])c1 [2,4-Dinitrochlorobenzene] |  |  |  |  |  |  | NAL depletion (%) [1, 11]: 0.0%; NAC depletion (%) [2, 11]: 91.6%; Prediction result [3, 15]: S (S represents as being an allergenic substance); Average score [3, 12]: 45.8%; NAL depletion (%) [4, 13]: 6.1%; NAC depletion (%) [5, 13]: 89.3%; Prediction result [6, 16]: S (S represents as being an allergenic substance); Average score [6, 14]: 47.7% |
| CC(=O)C1CCCCC1=O (stereo not drawn) [2-Acetylcyclohexanone] | 0.0 | 3.5 | NS (NS represents as being a non-allergenic substance) | 0.3 | 1.3 | NS (NS represents as being a non-allergenic substance) |  |
| C=C(C)C(=O)OCC(C)O (stereo not drawn) [2-Hydroxypropyl methacrylate] | 0.2 | 2.0 | NS (NS represents as being a non-allergenic substance) | 2.2 | 2.4 | NS (NS represents as being a non-allergenic substance) |  |
| O=C(O)c1ccc(O)cc1 [4-Hydroxybenzoic acid] | 0.1 | 2.9 | NS (NS represents as being a non-allergenic substance) | −1.4 | 0.0 | NS (NS represents as being a non-allergenic substance) |  |
| COc1ccc(C(C)=O)cc1 [4′-Methoxyacetophenone] | 0.0 | 1.2 | NS (NS represents as being a non-allergenic substance) | 3.3 | 3.3 | NS (NS represents as being a non-allergenic substance) |  |
| CC(=O)C(=O)CC(C)C [5-Methyl-2,3-hexanedione] |  |  |  |  |  |  | NAL depletion (%) [1, 11]: 26.1%; NAC depletion (%) [2, 11]: 14.8%; Prediction result [3, 15]: S (S represents as being an allergenic substance); Average score [3, 12]: 20.4%; NAL depletion (%) [4, 13]: 34.8%; NAC depletion (%) [5, 13]: 6.4%; Prediction result [6, 16]: S (S represents as being an allergenic substance); Average score [6, 14]: 20.6% |
| Cc1ccc2oc(=O)ccc2c1 [6-Methylcoumarin] | 0.1 | 1.3 | NS (NS represents as being a non-allergenic substance) | 1.0 | 0.0 | NS (NS represents as being a non-allergenic substance) |  |
| O=C(OCc1ccccc1)c1ccccc1 [Benzyl benzoate] |  |  |  |  |  |  | NAL depletion (%) [1, 11]: 0.3%; NAC depletion (%) [2, 11]: 0.0%; Average score [3, 12]: 0.1%; NAL depletion (%) [4, 13]: 2.8%; NAC depletion (%) [5, 13]: 0.0%; Average score [6, 14]: 1.4% |
| O=c1ccc2ccccc2o1 [Coumarin] | 0.4 | 1.2 | NS (NS represents as being a non-allergenic substance) | 3.9 | 0.5 | NS (NS represents as being a non-allergenic substance) |  |
| CCOC(=O)c1ccccc1C(=O)OCC [Diethyl phthalate] | 0.2 | 0.0 | NS (NS represents as being a non-allergenic substance) | 1.7 | 0.0 | NS (NS represents as being a non-allergenic substance) |  |
| CC(C)=CCCC(C)=CCCC(C)=CC=O [Farnesal] |  |  |  |  |  |  | NAL depletion (%) [1, 11]: 4.9%; NAC depletion (%) [2, 11]: 22.4%; Prediction result [3]: S (key: S represents as being an allergenic substance; NS represents as being a non-allergenic substance); Average score [3, 12]: 13.6%; NAL depletion (%) [4, 13]: 8.8%; NAC depletion (%) [5, 13]: 17.2%; Prediction result [6]: S (key: S represents as being an allergenic substance; NS represents as being a non-allergenic substance); Average score [6, 14]: 13.0% |
| OCC(O)CO [Glycerol] | 0.0 | 0.2 | NS (NS represents as being a non-allergenic substance) | 0.7 | 0.3 | NS (NS represents as being a non-allergenic substance) |  |
| CCCCCC [Hexane] |  |  | NS (NS represents as being a non-allergenic substance) |  |  | NS (NS represents as being a non-allergenic substance) | NAL depletion (%) [1]: 0.0%; NAC depletion (%) [2]: 0.0%; NAL depletion (%) [4]: 0.9%; NAC depletion (%) [5]: 0.2% |
| CC(C)O [Isopropanol] | 4.6 | 1.1 | NS (NS represents as being a non-allergenic substance) | 2.8 | 0.1 | NS (NS represents as being a non-allergenic substance) |  |
| CCCCCCCCCCCCCC(=O)OC(C)C [Isopropyl myristate] | 5.8 | 0.4 | NS (NS represents as being a non-allergenic substance) | 1.8 | 0.0 | NS (NS represents as being a non-allergenic substance) |  |
